Experimental data: US6436423B1, “Product and method for improving avian health” (Arkion Life Sciences, priority 1998, dated 2002)

Columns and labels:
[1] = system: Ross x Hubbard HyY broiler chicks; test: Example 1: efficacy of AQ applied to the litter used in broiler chicken houses (42 day performance); assay type: in vivo; settings: AQ applied to the litter at the 1.0× dose; full dose and half dose of coccidiostat in the feed
Text: A total of 3456 one-day-old straight run Ross x Hubbard HyY broiler chicks was used in the experiment. There were 6 treatments with 8 replicates per treatment and 72 birds per replicate. The individual pen was the experimental unit. The experimental treatments used follows:
1. Negative Control =No coccidiostat or growth promoting antibiotics and no litter treatment
2. Positive Control=BioCox® (full dose)+BMD®+3-Nitro and no litter treatment
3. BioCox® (full dose)+BMD®+3-Nitro+0.5× litter treatment*
4. BioCox® (full dose)+BMD®+3-Nitro+1.0× AQ litter treatment**
5. BioCox® (half dose)+BMD®+3-Nitro+0.5× AQ litter treatment
6. BioCox® (half dose)+BMD®+3-Nitro+1.0× AQ litter treatment
*0.5× Solution of AQ−⅛ Gallon/44,000sqft
**1.0× Solution of AQ−¼ Gallon/44,000sqfi

[2] = system: Ross x Hubbard HyY broiler chicks; test: Example 2: efficacy of AQ applied to the litter used in broiler chicken houses, dose titration (42 day performance); assay type: in vivo
Text: The term “weight adjusted feed efficiency” is based upon a feed efficiency corrected to a standard weight called the “weight adjusted feed efficiency” (WAFE). Feed efficiency can be adjusted to a standard weight of 2.00 kg. For every 31.78 grams difference in weight, the feed efficiency can be adjusted by 0.01. For example:
(§1) A total of 6912 one-day-old straight run Ross x Hubbard HyY broiler chicks was used in the experiment. There were 12 treatments with 8 replicates per treatment and 72 birds per replicate. The individual pen was the experimental unit. The experimental treatments used were as follows:
1. Negative Control—No coccidiostat or growth promoting antibiotics—No litter treatment
4. No litter treatment—BioCox (half dose)
3. 4× AQ litter treatment—No feed additives
4. 4× AQ litter treatment—BioCox (half dose)
5. 10.0× AQ litter treatment—No feed additives
6. 4.0× AQ litter treatment+BioCox (low dose)+BMD+3-Nitro
7. 4.0× AQ litter treatment BioCox (low dose)+BMD+3-Nitro
8. 10× AQ litter treatment−BioCox (half dose)
9. Positive Control BioCox (full dose)+BMD+3-Nitro
10. 4× AQ litter treatment−BioCox (full dose)+BMD+3-Nitro
11. 10× AQ litter treatment−BioCox (half dose)+BMD+3-Nitro
12. 10× AQ litter treatment−BioCox (full dose)+BMD+3-Nitro.
(§2) 4× Solution of AQ−1 Gallon/44,000sqft×4.2 ml per 48sqft (one pen)

coccidia = test: Example 2: intestinal lesion scores (intestinal coccidia score); assay type: in vivo, broiler chicken; settings: 14 day data; 10× or 4× AQ dose on litter combined with typically used poultry diets
Method: as §1, §2
This means that the lesion score difference was greater than 1 unit (scoring range of 0-4).

[3] = 10× AQ dose on litter combined with typically used poultry diets
[4] = 10× AQ dose on litter, diet contained no coccidiostat or antibiotic feed additive

O=C1c2ccccc2C(=O)c2ccccc21 [AQ, anthraquinone]
effect on feed efficiency (conclusion) [1]: improvement in feed efficiency
feed efficiency compared with the positive control (conclusion) [2, 3]: significantly improved (p<0.05) over the positive control
weight gain compared with the positive control (conclusion) [2, 3]: significantly improved (p<0.05) over the positive control
feed efficiency compared with the negative control (conclusion) [2, 4]: significant difference between this treatment and the negative control
feed efficiency compared with the positive control (conclusion) [2, 4]: no difference from the positive control
effect of addition of AQ to the litter on weight gain (conclusion) ([2]; dose titration study): tends to improve weight gain numerically
intestinal coccidia score compared with the positive and negative control (conclusion) (coccidia): improved significantly (p<0.05) over the positive and negative control
